Measurements published in patent publication US20100291089A1, “LIGAND OF REGULATING IMMUNE RESPONSE, AND USE THEREOF IN TREATING AN IMMUNE RESPONSE-RELATED DISEASE” (POSTECH ACADEMY-INDUSTRY FOUNDATION, priority 2005, published 2010).
Blank lines part the entries; values can stand above or below the molecule they belong to. Where no end group is shown, it is not given here.

Experiments:
RA FLS = experiment: Cell proliferation assay ([3H]-thymidine incorporation, cell counts) in RA FLS; format: cell-based, human; conditions: SAA 5 μM, 72 h, PTX 100 ng/ml, U73122 1 μM, PD98059 50 μM, LY294002 50 μM
Method: Fibroblast-like synoviocytes (FLS) were prepared from synovial samples obtained from patients suffering from RA and osteoarthritis (OA), all of whom were also undergoing total joint replacement surgery. The FLS were isolated from the synovial tissues in accordance with a previously described procedure (Cho, C. S., M. L. Cho, S. Y. Min, W. U. Kim, D. J. Min, S. S. Lee, S. H. Park, J. Choe, and H. Y. Kim. 2000. CD40 engagement on synovial fibroblast up-regulates production of vascular endothelial growth factor. J. Immunol. 164: 5055-5061).
In brief, fresh synovial tissues were minced into 2- to 3-mm pieces, then treated for 4 h with 4 mg/ml type I collagenase (Worthington Biochemical), and maintained in Dulbecco's Modified Eagle's Medium (DMEM) containing 10% FBS at 37° C. in an atmosphere containing 5% CO2. […] MH7A cells, the immortalized synoviocytes that harbor the SV40 T antigen, were grown in DMEM supplemented with 10% FBS, as previously described (Miyazawa, K, A. Mori, and H. Okudaira. 1998. Establishment and characterization of a novel human rheumatoid fibroblast-like synoviocyte line, MH7A, immortalized with SV40T antigen. J. Biochem. 124: 1153-1162), and then employed in some of the experiments. Human umbilical vein endothelial cells (HUVECs) were isolated from fresh human umbilical cords via collagenase (Worthington Biochemical) digestion, and then maintained in 20% FBS-containing M-199 medium (Sigma, St. Louis, Mo.), as previously described. All HUVECs were used after no more than five passages.
The RA FLS, OA FLS, and HUVECs were plated onto 24-well culture dishes at a density of 2×10^4 cells/well, and then permitted to attach overnight. After 24 h of serum starvation, the cells were treated for 72 h with a variety of mitogens. [^3H]-thymidine (1 μCi) was added to each of the wells prior to the final 6 h of incubation. Cell growth was also evaluated via cell counts. Control and mitogen-treated cells were harvested by trypsinization, and the number of cells was determined with a hemocytometer, under ×100 magnification.

human neutrophils [1] = experiment: Intracellular calcium mobilization (fura-2) in human neutrophils; format: cell-based; conditions: 1 M peptide
Method: Neutrophils were stimulated with 1 μM of PACAP27 (SEQ ID NO:1), PACAP38 (SEQ ID NO:2), or VIP (SEQ ID NO:3), and calcium concentrations were measured for 10 min. In order to measure EKR phosphorylation, each peptide hormones was used with 1 μM concentrations for 5 min. For cAMP measurement, each peptide hormones was used with 1 μM concentrations for 10 min.
(§1) Intracellular calcium concentrations ([Ca^2+]i) were determined using Grynkiewicz's method with fura-2/AM, as described in “Grynkiewicz, G., M. Poenie, and R. Y. Tsien. 1985. […] J. Biol. Chem. 260:3440-3450”. Briefly, the cells prepared in Example 1.2 were incubated with 3 µM fura-2/AM at 37° C. for 50 minutes in fresh serum free RPMI 1640 medium with continuous stirring. The incubated cells (2×10^6) were aliquoted for each assay in Ca^2+-free Locke's solution (154 mM NaCl, 5.6 mM KCl, 1.2 mM MgCl2, 5 mM HEPES (pH 7.3), 10 mM glucose, and 0.2 mM EGTA). Fluorescence changes at 340 and 380 nm using a common emission wavelength of 500 nm were measured, and fluorescence ratios were converted to [Ca2+]i, as described in above Grynkiewicz, G. et al.

[2] = target: T1, formyl peptide receptor-like 1 (FPRL1) (human, UniProt P25090 1-351); experiment: cell-based or functional assay
T1 construct: in the other assays endogenous on human neutrophils, monocytes, synoviocytes (FLS, MH7A) or HUVECs; also called FPRL1/RBL; lipoxin A4 receptor (LXA4R)
T1 sequence: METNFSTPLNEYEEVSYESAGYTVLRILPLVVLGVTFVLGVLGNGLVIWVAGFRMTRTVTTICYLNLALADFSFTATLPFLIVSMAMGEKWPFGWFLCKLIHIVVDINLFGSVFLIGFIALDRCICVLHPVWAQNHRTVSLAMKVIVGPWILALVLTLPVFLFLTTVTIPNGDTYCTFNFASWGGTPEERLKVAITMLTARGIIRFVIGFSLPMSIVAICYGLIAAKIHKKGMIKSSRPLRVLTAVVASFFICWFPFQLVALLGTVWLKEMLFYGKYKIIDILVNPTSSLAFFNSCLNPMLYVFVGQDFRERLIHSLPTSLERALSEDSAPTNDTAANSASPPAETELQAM

HUVECs = experiment: HUVEC wounding migration assay; format: cell-based, human; conditions: SAA 5 μM, WKYMVm 10 nM, VEGF 20 ng/ml; 12 h
Method: […] After 12 h of incubation, migration was quantitated via counts of the cells migrating beyond the reference line. For the tube formation assay, the HUVECs were seeded on a layer of previously polymerized Matrigel (BD Biosciences) with SAA (SEQ ID NO:19) (5 μg/ml), WKYMVm (SEQ ID NO:5) peptide (10 nM), a specific ligand for FPRL1 (32, 33) or VEGF (20 ng/ml). After 18 h of incubation, the cell morphology was visualized via phase-contrast microscopy and photographed.

FPRL1 [3] = target: T2, FPRL1 (Homo sapiens, UniProt P25090); experiment: Intracellular calcium mobilization (fura-2) in FPRL1/RBL cells; format: cell-based
T2 construct: expressed in transfected cells
T2 sequence (P25090 1-351): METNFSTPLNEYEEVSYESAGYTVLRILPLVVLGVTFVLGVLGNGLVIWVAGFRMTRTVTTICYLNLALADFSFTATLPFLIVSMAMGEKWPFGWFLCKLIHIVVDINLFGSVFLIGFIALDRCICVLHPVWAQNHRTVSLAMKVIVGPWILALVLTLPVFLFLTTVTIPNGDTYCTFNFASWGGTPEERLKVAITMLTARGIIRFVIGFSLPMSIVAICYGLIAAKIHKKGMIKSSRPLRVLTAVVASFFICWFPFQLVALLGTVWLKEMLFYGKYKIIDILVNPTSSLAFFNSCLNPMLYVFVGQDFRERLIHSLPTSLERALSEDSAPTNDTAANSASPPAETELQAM
Method: FPRL1-expressing rat basophile leukemia (RBL)-2H3 (FPRL1/RBL), FPR-expressing RBL-2H3 (FPR/RBL), and vector-transfected RBL-2H3 (vector/RBL) were donated by Dr. Richard D. Ye (University of Illinois). FPRL1/RBL, FPR/RBL, and vector/RBL were maintained at 37° C. in a humidified 5% CO2 atmosphere in high glucose DMEM supplemented with 20% (vol/vol) heat-inactivated fetal calf serum and G418 ([…]). FPRL1/RBL, FPR/RBL, and vector/RBL were sub-cultured every three days. The prepared cells were used in the following examples.
as §1

human neutrophils [4] = experiment: FACS analysis of surface CD11b expression on neutrophils; format: cell-based; conditions: 1 μM or 10 μM, 1 hour
Method: Purified neutrophils were incubated with indicated concentration of PACAP27 (SEQ ID NO:1) for 1 hour. Cells (2×10^5/assay) were washed with FACS buffer (PBS containing 1% BSA and 0.1% sodium azide), incubated with human AB type serum for 10 minutes on ice, and stained with PE-labeled human CD11b antibody (BD PharMingen, San Diego, Calif.). They were then analyzed using a FACSCalibur system (BD Biosciences, San Jose, Calif.), as described in “Harfi, I., S. D'Hondt, F. Corazza, and E. Sariban. 2004. J. Immunol. 173:4154-4163”.

FPRL1 [5] = target: T2, FPRL1; experiment: Ligand binding analysis, 125I-labeled PACAP27 on FPRL1/RBL cells; conditions: compared with PACAP27
Method: The ligand binding analysis was performed as described in “Bae, Y. S., H. Y. Lee, E. J. Jo, J. I. Kim, H. K. Kang, R. D. Ye, J. Y. Kwak, and S. H. Ryu. 2004. J. Immunol. 173:607-614”. Briefly, FPRL1/RBL cells were seeded at 1×10^5 cells/well onto a 24 well plate and cultured overnight. After blocking them with blocking buffer (33 mM HEPES, pH 7.5, 0.1% BSA in RPMI 1640 medium) for 2 hours, 50 pM of ^125I-labeled PACAP27 (Perkin-Elmer, Boston, Mass.) was added to the cells in binding buffer (PBS containing 0.1% BSA), in the presence of the test peptides (cold PACAP27 (SEQ ID NO:1), truncated-PACAPs, and chimeric PACAPs), and then incubated for 3 hours at 4° C. with continuous shaking. The cells were then washed 5 times with ice-cold binding buffer, and 200 µL of lysis buffer (20 mM Tris, pH 7.5, 1% Triton X-100) was added to each well for 20 minutes at room temperature. Lysates were then collected and counted using a γ-ray counter.

[6] = target: T1, formyl peptide receptor-like 1 (FPRL1); experiment: displacement of 125I-PACAP27 by unlabeled peptide on FPRL1/RBL cells

Molecule: COc1cccc(-c2cc(=O)c3ccccc3o2)c1N [PD98059]
- blockage of the proliferative and anti-apoptotic activities of SAA (RA FLS): almost complete blockage

Molecule: COc1ccc2c(c1)CC[C@@H]1[C@@H]2CC[C@]2(C)[C@@H](NCCCCCCN3C(=O)C=CC3=O)CC[C@@H]12 [U73122]
- blockage of the proliferative and anti-apoptotic activities of SAA (RA FLS): almost complete blockage

Molecule: PACAP38: pituitary adenylate cyclase-activating polypeptide, 38 amino acids, SEQ ID NO:2 (HSDGIFTDSYSRYRKQMAVKKYLAAVLGKRYKQRVKNK; ends and bridges not checked; listed as Homo sapiens)
- [Ca2+]i increase in human neutrophils (human neutrophils [1]): neither PACAP38 (SEQ ID NO:2) nor VIP (SEQ ID NO:3) increased [Ca2+]i

- intracellular Ca2+ in RA FLS (Fluo-3, calcium imaging), SAA 3 µM [2]: 2.3 fold
Molecule: Serum amyloid A (SAA) (from UniProt P0DJI8 19-94) (ligand)

Molecule: VEGF
- migratory activity of HUVECs relative to control cells (HUVECs): approximately 3 times

- [Ca2+]i increase / activation of FPRL1 (FPRL1 [3]): does not interact with FPRL1
Molecule: VIP: vasoactive intestinal peptide, SEQ ID NO:3
- [Ca2+]i increase in human neutrophils (human neutrophils [1]): neither PACAP38 (SEQ ID NO:2) nor VIP (SEQ ID NO:3) increased [Ca2+]i

Molecule: boiled PACAP27: PACAP27 heat-inactivated for 10 minutes in boiling water (HSDGIFTDSYSRYRKQMAVKKYLAAVL; not fully specified; ends and bridges not checked; listed as Homo sapiens)
- CD11b up-regulation compared with PACAP27 (human neutrophils [4]): no difference

Molecule: polymyxin b-treated PACAP27: PACAP27 pretreated with 5 μM polymyxin b for 1 hour in 37° C. (HSDGIFTDSYSRYRKQMAVKKYLAAVL; not fully specified; ends and bridges not checked; listed as Homo sapiens)
- CD11b up-regulation compared with PACAP27 (human neutrophils [4]): no difference

- [Ca2+]i increase / activation of FPRL1 (FPRL1 [3]): partially activate
Molecule: tPACAP9-27: truncated PACAP27, SEQ ID NO:7 (SYSRYRKQMAVKKYLAAVL; ends and bridges not checked; listed as Homo sapiens)
- binding affinity to FPRL1 (in words) (FPRL1 [5]): almost the same binding affinity as PACAP27

- Kd [6]: 51.2 nM
B1: cPACAP9VIP (chimeric PACAP) (peptide)
peptide: HSDGIFTDNYSRYRKQMAVKKYLAAVL
modifications: ends and bridges not checked
notes: PACAP27 with the VIP residue at position 9; bought from GenScript

- Kd [6]: 51.2 nM
B2: cPACAP13VIP (chimeric PACAP) (peptide)
peptide: HSDGIFTDSYSRLRKQMAVKKYLAAVL
modifications: ends and bridges not checked
notes: PACAP27 with the VIP residue at position 13; bought from GenScript

- binding result [6]: binds
B3: tPACAP9-27 (truncated PACAP) (peptide)
peptide: SYSRYRKQMAVKKYLAAVL
modifications: ends and bridges not checked
notes: Synthetic truncation of PACAP27; the range is counted on PACAP27, by the peptide's name
